Test system: 415267-285-R-J2-PDC complex spheroid viability
Assay: Anticancer human tumor 415267-285-R-J2-PDC patient-derived breast carcinoma cell line growth inhibition [POLQ]
Details: for IC50: curve of first compound; for viability, T/C: stronger effect = lower value
Method: Multicellular complex tumor spheroid response to Polymerase (POL) inhibitors (novobiocin, ART-558, RP6685) in combination with a variety of drugs and investigational agents in selected tumor cell lines
The POL inhibitors (novobiocin, ART-558, and RP6685) were evaluated both individually and in combination with standard of care and investigational anticancer small molecules within a complex spheroid model of solid tumors. . Complex spheroids include a stromal component modeled by human endothelial cells (HUVEC) and fibroblasts modeled by human mesenchymal stem cells (MSCs). The concentration ranges selected for each drug and investigational agent were based upon clinically achievable concentrations if the clinical Cmax of the agent was known.
Compounds. The drugs and investigational agents: novobiocin (NSC847541), ART-558 (NSC835418), RP-6685 (NSC848927), peposertib (NSC802822), ceralasertib (NSC780249), elimusertib (NSC800525), camonsertib (NSC841442), AZD-1390 (NSC803789), olaparib (NSC753686), talazoparib (NSC767125), rucaparib (NSC756644), sotorasib (NSC818433), MRTX-1133 (NSC836407), SN-38 (NSC673596), topotecan (NSC609699), epotoside (NSC141540), doxorubicin (NSC123127), gemcitabine (NSC613327), 5-fluorouracil (NSC19893), paclitaxel (NSC125973), vemurafenib (NSC761431), MSA-2 (NSC828583), SN-011 (NSC837082), adavosertib (NSC754352), prexasertib (NSC758257), carboplatin (NSC241240) and oxaliplatin (NSC266046), were obtained from the National Cancer Institute (NCI) Developmental Therapeutics Program Chemical Repository (21). The FDA-approved anticancer drug set is available from the Developmental Therapeutics Program at https://dtp.cancer.gov/organization/dscb/obtaining/. […] The stock solutions were prepared in dimethyl sulfoxide (DMSO, Sigma-Aldrich, St. Louis, MO, cat. D2650), except for the platinum compounds which were prepared in saline (Quality Biological, Gaithersburg, MD, cat. 114-055-101), at 800-fold the tested concentration and stored at -70 degrees C prior to their use. All drugs and investigational agents were tested over a range starting from a high concentration at or near the clinical Cmax and decreasing in half-log increments. If the clinical Cmax for an agent had not been determined, the highest concentration tested was 10 microM, except for SN-38, which was tested at a high concentration of 1 microM.
Cell Culture. All cells were maintained in an incubator at 37 degrees C and 5% CO2 with 95% humidity. The PDC lines were cultured according to standard operating procedures established by the NCI PDMR (https://pdmr.cancer.gov). Table 3 of the manuscript, lists the cell lines along with the number of the three cell types plated to form the mct-spheroids and media for tumor cell growth. After thawing, all PDC lines, except 997537-175-T-J1-PDC and 415267-285-R-J2-PDC, were cultured in Matrigel-coated flasks prepared with a working solution of 1X Ham's F-12 nutrient mix, without supplementation (Thermo Fisher Scientific, cat. 11765054), 100 U/mL penicillin-streptomycin (Thermo Fisher Scientific, cat. 15140122), and 2.5% Matrigel (Corning Inc., Corning, NY, cat. 354248) for the first three passages. The two PDC lines 997537-175-T-J1-PDC and 415267-285-R-J2-PDC were cultured on uncoated flasks. The 857933-349-R-J2-PDC line was cultured in 6C/Colon 1B media containing advanced DMEM/F-12 (Thermo Fisher Scientific, cat. 12634028), 10 mM HEPES (Thermo Fisher Scientific, cat. 15630080), 1X GlutaMAX supplement (Thermo Fisher Scientific, cat. 35050061), 0.1 mg/mL primocin (InvivoGen, San Diego, CA, cat. ant-pm-2), 10% defined fetal bovine serum, heat inactivated (HyClone Laboratories Inc., Logan, UT, cat. SH30070.03HI), 50% L-WRN conditioned media (ATCC, cat. CRL-3276), 1.25 mM N-Acetyl-L-cysteine (Sigma-Aldrich, cat. A9165), 10 mM nicotinamide (Sigma-Aldrich, cat. N0636), 1X B-27 supplement (Thermo Fisher Scientific, cat. 17504044), 1X N-2 supplement (Thermo Fisher Scientific, cat. […]

[1] = second compound 0.0316 µM, first compound 0.0316 µM
[2] = second compound 0.0316 µM, first compound 0.1 µM
[3] = second compound 0.0316 µM, first compound 0.316 µM
[4] = second compound 0.0316 µM, first compound 1 µM
[5] = second compound 0.1 µM, first compound 0.0316 µM
[6] = second compound 0.1 µM, first compound 0.1 µM
[7] = second compound 0.1 µM, first compound 0.316 µM
[8] = second compound 0.1 µM, first compound 1 µM
[9] = second compound 0.316 µM, first compound 0.0316 µM
[10] = second compound 0.316 µM, first compound 0.1 µM
[11] = second compound 0.316 µM, first compound 0.316 µM
[12] = second compound 0.316 µM, first compound 1 µM
[13] = second compound 1 µM, first compound 0.0316 µM
[14] = second compound 1 µM, first compound 0.1 µM
[15] = second compound 1 µM, first compound 0.316 µM
[16] = second compound 1 µM, first compound 1 µM
[17] = second compound 3.16 µM, first compound 0.0316 µM
[18] = second compound 3.16 µM, first compound 0.1 µM
[19] = second compound 3.16 µM, first compound 0.316 µM
[20] = second compound 3.16 µM, first compound 1 µM
[21] = second compound 10 µM, first compound 0.0316 µM
[22] = second compound 10 µM, first compound 0.1 µM
[23] = second compound 10 µM, first compound 0.316 µM
[24] = second compound 10 µM, first compound 1 µM
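Further: spheroids exposed to compounds for one week before readout.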
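Wherever viability, T/C is given: luminescence used as stand-in measure of viable cells; 100% = DMSO vehicle control viability.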

In the case of CC1COCCN1c1cc(-c2ccnn2C)c2ccnc(-c3ccn[nH]3)c2n1 (centres undefined) + COC1C(OC(N)=O)C(O)C(Oc2ccc3c(O)c(NC(=O)c4ccc(O)c(CC=C(C)C)c4)c(=O)oc3c2C)OC1(C)C, the IC50 (second compound 0.0316 µM) is reported as < 31.6 nM, the IC50 (second compound 0.1 µM) is reported as 36.3 nM and the IC50 (second compound 0.316 µM) is reported as < 31.6 nM. It also gave an IC50 (second compound 1 µM) of 39 nM, an IC50 (second compound 3.16 µM) of 35.4 nM and an IC50 (second compound 10 µM) of 41.2 nM. The viability, T/C [1] was 47%, the viability, T/C [2] was 12.6% and the viability, T/C [3] was 6.23%. It also gave a viability, T/C [4] of 5.27%, a viability, T/C (second compound 0.0316 µM, first compound 3.16 µM) of 4.48% and a viability, T/C (second compound 0.0316 µM, first compound 10 µM) of 3.41%. For the same compound, the viability, T/C [5] was 55.3%, the viability, T/C [6] was 11.5% and the viability, T/C [7] was 6.16%. It also gave a viability, T/C [8] of 3.96%, a viability, T/C (second compound 0.1 µM, first compound 3.16 µM) of 4.03% and a viability, T/C (second compound 0.1 µM, first compound 10 µM) of 4.38%. It also gave a viability, T/C [9] of 48.4%, a viability, T/C [10] of 11.8% and a viability, T/C [11] of 5.97%. For the same compound, the viability, T/C [12] was 5.08%, the viability, T/C (second compound 0.316 µM, first compound 3.16 µM) was 4.16% and the viability, T/C (second compound 0.316 µM, first compound 10 µM) was 5.11%. The viability, T/C [13] was 58.5%, the viability, T/C [14] was 11.5% and the viability, T/C [15] was 5.09%. For the same compound, the viability, T/C [16] was 6.05%, the viability, T/C (second compound 1 µM, first compound 3.16 µM) was 4.42% and the viability, T/C (second compound 1 µM, first compound 10 µM) was 4.44%. It also gave a viability, T/C [17] of 53.9%, a viability, T/C [18] of 15.8% and a viability, T/C [19] of 7.15%. It also gave a viability, T/C [20] of 5.85%, a viability, T/C (second compound 3.16 µM, first compound 3.16 µM) of 4.13% and a viability, T/C (second compound 3.16 µM, first compound 10 µM) of 4.16%. It also gave a viability, T/C [21] of 61.3%, a viability, T/C [22] of 12.8% and a viability, T/C [23] of 6.51%. For the same compound, the viability, T/C [24] was 4.55%, the viability, T/C (second compound 10 µM, first compound 3.16 µM) was 4.33% and the viability, T/C (second compound 10 µM, first compound 10 µM) was 4.73%.
Compound C=CCn1c(=O)c2cnc(Nc3ccc(N4CCN(C)CC4)cc3)nc2n1-c1cccc(C(C)(C)O)n1 + Cc1cccc(N(C)C(=O)C2C(O)CCN2c2nc(C)cc(C(F)(F)F)c2C#N)c1 has an IC50 (second compound 0.0316 µM) of 444 nM, an IC50 (second compound 0.1 µM) of 475 nM and an IC50 (second compound 0.316 µM) of 460 nM. For the same compound, the IC50 (second compound 1 µM) was 486 nM, the IC50 (second compound 3.16 µM) was 452 nM and the IC50 (second compound 10 µM) was 425 nM. The viability, T/C (second compound 0.0316 µM, first compound 0.00316 µM) was 103%, the viability, T/C (second compound 0.0316 µM, first compound 0.01 µM) was 102% and the viability, T/C [1] was 104%. For the same compound, the viability, T/C [2] was 116%, the viability, T/C [3] was 67.6% and the viability, T/C [4] was 8%. For the same compound, the viability, T/C (second compound 0.1 µM, first compound 0.00316 µM) was 96.6%, the viability, T/C (second compound 0.1 µM, first compound 0.01 µM) was 102% and the viability, T/C [5] was 106%. The viability, T/C [6] was 112%, the viability, T/C [7] was 73.6% and the viability, T/C [8] was 6.74%. For the same compound, the viability, T/C (second compound 0.316 µM, first compound 0.00316 µM) was 103%, the viability, T/C (second compound 0.316 µM, first compound 0.01 µM) was 105% and the viability, T/C [9] was 109%. It also gave a viability, T/C [10] of 94.5%, a viability, T/C [11] of 71% and a viability, T/C [12] of 7.48%. It also gave a viability, T/C (second compound 1 µM, first compound 0.00316 µM) of 103%, a viability, T/C (second compound 1 µM, first compound 0.01 µM) of 103% and a viability, T/C [13] of 107%. The viability, T/C [14] was 108%, the viability, T/C [15] was 76.1% and the viability, T/C [16] was 6.25%. It also gave a viability, T/C (second compound 3.16 µM, first compound 0.00316 µM) of 102%, a viability, T/C (second compound 3.16 µM, first compound 0.01 µM) of 109% and a viability, T/C [17] of 108%. The viability, T/C [18] was 123%, the viability, T/C [19] was 69% and the viability, T/C [20] was 7.86%. For the same compound, the viability, T/C (second compound 10 µM, first compound 0.00316 µM) was 108%, the viability, T/C (second compound 10 µM, first compound 0.01 µM) was 106% and the viability, T/C [21] was 122%. The viability, T/C [22] was 114%, the viability, T/C [23] was 64.1% and the viability, T/C [24] was 9.37%.

Reference: PubChem BioAssay AID1963847 (Molecular Pharmacology Branch, DTP, NCI, 2024)
